Assay results: the supplement of paper PMC11208160

Test: recombinant UMI read abundance after kanamycin selection (control-corrected) (log10(CPM+1)); higher = more efficient recombination; extreme values may be limits of the assay; sequences stand for … in AGTGCAGAGAAAATCGGCCAGTTTTCTCTGCCTGCAGTCCGCATGCCGTGGGACCCCTTGGGTTCTAACCTGTTGCCTAGATTTATGCAGCGGACTGCCTTTCTCCCAAAGTGATAAACCGG…AGGTTGGTTTCACT; site = the 11-nt donor
Procedure, shortened: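 Values are reported as log10(CPM+1), obtained by converting sequencing counts to CPM, averaging replicates and scaling by control-derived factors. The counts came from recombinant UMIs amplified by PCR across the donor–target junction. These UMIs came from a pooled Escherichia coli screen of donor and donor-binding-loop pairs for the IS621 bridge recombinase, plated with IPTG (0.07 mM) plus kanamycin or left unselected, in two replicates each.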
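Note: IS621 bridge recombinase in Escherichia coli cells against a fixed T5 target plasmid.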

Sequence	recombinant UMI read abundance (log10)
CACCGTACATGGACCGGTTTTCCCGGTAATCCGTATTTGCT (site CACCGTACTAG)	2.18
CACCGTACATGGACCGGTTTTCCCGGTAATCCGTATTTGCT (site CCCCGTACTAG)	0.363
CACCGTACATGGACCGGTTTTCCCGGTAATCCGTATTTGCT (site CGCCGTACTAG)	0.614
CACCGTACATGGACCGGTTTTCCCGGTAATCCGTATTTGCT (site CTCCGTACTAG)	0.912
CACCTGGCATGGACCGGTTTTCCCGGTAATCCGTATTTGGA (site CACATGGCTTC)	0.0162
CACCTGGCATGGACCGGTTTTCCCGGTAATCCGTATTTGGA (site CACCTGGCTTC)	0.595
CACCTGGCATGGACCGGTTTTCCCGGTAATCCGTATTTGGA (site CACGTGGCTTC)	0.0355
CACCTGGCATGGACCGGTTTTCCCGGTAATCCGTATTTGGA (site CACTTGGCTTC)	0.0384
CACGCCTCATGGACCGGTTTTCCCGGTAATCCGTATTTGAA (site CACGCCTCTTT)	2.67
CACGCCTCATGGACCGGTTTTCCCGGTAATCCGTATTTGGC (site CACGCCTCTGC)	2.52
CACGGCCCATGGACCGGTTTTCCCGGTAATCCGTATTTGTC (site CACGGCCCTAA)	0.214
CACGGCCCATGGACCGGTTTTCCCGGTAATCCGTATTTGTC (site CACGGCCCTCA)	0.166
CACGGCCCATGGACCGGTTTTCCCGGTAATCCGTATTTGTC (site CACGGCCCTGA)	1.59
CACGGCCCATGGACCGGTTTTCCCGGTAATCCGTATTTGTC (site CACGGCCCTTA)	0.469
CACGGCTCATGGACCGGTTTTCCCGGTAATCCGTATTTGCC (site CACGGCTCTGG)	3.3
CACTACACATGGACCGGTTTTCCCGGTAATCCGTATTTGCT (site CACTACACTAG)	2.44
CACTACACATGGACCGGTTTTCCCGGTAATCCGTATTTGCT (site CCCTACACTAG)	1.16
CACTACACATGGACCGGTTTTCCCGGTAATCCGTATTTGCT (site CGCTACACTAG)	0.729
CACTACACATGGACCGGTTTTCCCGGTAATCCGTATTTGCT (site CTCTACACTAG)	1.79
CACTCCCCATGGACCGGTTTTCCCGGTAATCCGTATTTGCC (site CACTCCACTGG)	0
CACTCCCCATGGACCGGTTTTCCCGGTAATCCGTATTTGCC (site CACTCCCCTGG)	1.23
CACTCCCCATGGACCGGTTTTCCCGGTAATCCGTATTTGCC (site CACTCCGCTGG)	0
CACTCCCCATGGACCGGTTTTCCCGGTAATCCGTATTTGCC (site CACTCCTCTGG)	1.43
CACTCCTCATGGACCGGTTTTCCCGGTAATCCGTATTTGCT (site CACTCCTCTAG)	3.09
CACTCCTCATGGACCGGTTTTCCCGGTAATCCGTATTTGCT (site CACTCCTCTCG)	0.583

Sequence	recombinant UMI read abundance (log10)
CACTCCTCATGGACCGGTTTTCCCGGTAATCCGTATTTGCT (site CACTCCTCTGG)	2.08
CACTCCTCATGGACCGGTTTTCCCGGTAATCCGTATTTGCT (site CACTCCTCTTG)	1.69
CACTCCTCATGGACCGGTTTTCCCGGTAATCCGTATTTGTC (site CACTCCTCTGA)	3.16
CACTCCTCATGGACCGGTTTTCCCGGTAATCCGTATTTGTC (site CACTCCTCTGC)	1.7
CACTCCTCATGGACCGGTTTTCCCGGTAATCCGTATTTGTC (site CACTCCTCTGG)	2.55
CACTCCTCATGGACCGGTTTTCCCGGTAATCCGTATTTGTC (site CACTCCTCTGT)	3.06
CACTCGGCATGGACCGGTTTTCCCGGTAATCCGTATTTGAT (site CACTCGGCTAT)	2.18
CACTCGGCATGGACCGGTTTTCCCGGTAATCCGTATTTGTA (site CACTCGGCTTA)	2.18
CACTCTACATGGACCGGTTTTCCCGGTAATCCGTATTTGTA (site CACTCTACTTA)	0.722
CACTGATCATGGACCGGTTTTCCCGGTAATCCGTATTTGCT (site CACTGATCTAG)	2.61
CACTGATCATGGACCGGTTTTCCCGGTAATCCGTATTTGGG (site CACTGATCTCC)	1.27
CACTTCGCATGGACCGGTTTTCCCGGTAATCCGTATTTGGA (site CACTTAGCTTC)	0.0127
CACTTCGCATGGACCGGTTTTCCCGGTAATCCGTATTTGGA (site CACTTCGCTTC)	0.493
CACTTCGCATGGACCGGTTTTCCCGGTAATCCGTATTTGGA (site CACTTGGCTTC)	0
CACTTCGCATGGACCGGTTTTCCCGGTAATCCGTATTTGGA (site CACTTTGCTTC)	0.00357
CACTTGGCATGGACCGGTTTTCCCGGTAATCCGTATTTGCA (site CACTTGGCTTA)	0.00954
CACTTGGCATGGACCGGTTTTCCCGGTAATCCGTATTTGCA (site CACTTGGCTTC)	0.0203
CACTTGGCATGGACCGGTTTTCCCGGTAATCCGTATTTGCA (site CACTTGGCTTG)	0.498
CACTTGGCATGGACCGGTTTTCCCGGTAATCCGTATTTGCA (site CACTTGGCTTT)	0.0216
CACTTGGCATGGACCGGTTTTCCCGGTAATCCGTATTTGCT (site CACTTGGCTAG)	0
CAGAACCCATGGACCGGTTTTCCCGGTAATCCGTATTTGAG (site CAGAACCCTCT)	1.35
CAGAAGACATGGACCGGTTTTCCCGGTAATCCGTATTTGCA (site AGGAAGACTTG)	0.401
CAGAAGACATGGACCGGTTTTCCCGGTAATCCGTATTTGCA (site CAGAAGACTTG)	3.09
CAGACGACATGGACCGGTTTTCCCGGTAATCCGTATTTGGG (site CAGACGACTCC)	0.00735
CAGACGACATGGACCGGTTTTCCCGGTAATCCGTATTTGGG (site CAGCCGACTCC)	0.0345

Sequence	recombinant UMI read abundance (log10)
CAGACGACATGGACCGGTTTTCCCGGTAATCCGTATTTGGG (site CAGGCGACTCC)	0.0123
CAGACGACATGGACCGGTTTTCCCGGTAATCCGTATTTGGG (site CAGTCGACTCC)	0.0666
CAGATCCCATGGACCGGTTTTCCCGGTAATCCGTATTTGGT (site CAGATCCCTAC)	1.42
CAGCACGCATGGACCGGTTTTCCCGGTAATCCGTATTTGAT (site CAGCACGCTAT)	2.39
CAGCCGACATGGACCGGTTTTCCCGGTAATCCGTATTTGGG (site CAGACGACTCC)	0.0262
CAGCCGACATGGACCGGTTTTCCCGGTAATCCGTATTTGGG (site CAGCCGACTCC)	0.188
CAGCCGACATGGACCGGTTTTCCCGGTAATCCGTATTTGGG (site CAGGCGACTCC)	0.0119
CAGCCGACATGGACCGGTTTTCCCGGTAATCCGTATTTGGG (site CAGTCGACTCC)	0.00469
CAGCGAACATGGACCGGTTTTCCCGGTAATCCGTATTTGGG (site CAGCGAACTCC)	0.888
CAGCTACCATGGACCGGTTTTCCCGGTAATCCGTATTTGCT (site CAGCTACCTAG)	0
CAGCTACCATGGACCGGTTTTCCCGGTAATCCGTATTTGCT (site CCGCTACCTAG)	0
CAGCTACCATGGACCGGTTTTCCCGGTAATCCGTATTTGCT (site CGGCTACCTAG)	0
CAGCTACCATGGACCGGTTTTCCCGGTAATCCGTATTTGCT (site CTGCTACCTAG)	0
CAGGAACCATGGACCGGTTTTCCCGGTAATCCGTATTTGAT (site CAGGAACCTAT)	0
CAGGAACCATGGACCGGTTTTCCCGGTAATCCGTATTTGAT (site CCGGAACCTAT)	0
CAGGAACCATGGACCGGTTTTCCCGGTAATCCGTATTTGAT (site CGGGAACCTAT)	0
CAGGAACCATGGACCGGTTTTCCCGGTAATCCGTATTTGAT (site CTGGAACCTAT)	0
CAGGACTCATGGACCGGTTTTCCCGGTAATCCGTATTTGTC (site CAGGACTCTGA)	3.38
CAGGGGTCATGGACCGGTTTTCCCGGTAATCCGTATTTGTA (site CAGGGGTCTTA)	3.37
CAGTAACCATGGACCGGTTTTCCCGGTAATCCGTATTTGAA (site CAGTAACCTTT)	0.255
CAGTAACCATGGACCGGTTTTCCCGGTAATCCGTATTTGGA (site CAGTAACCTTC)	0.00404
CAGTACACATGGACCGGTTTTCCCGGTAATCCGTATTTGAC (site CAGTACACTGT)	3.63
CAGTAGACATGGACCGGTTTTCCCGGTAATCCGTATTTGTC (site CAGTAGACTGA)	2.13
CAGTAGGCATGGACCGGTTTTCCCGGTAATCCGTATTTGCA (site CAGTAGGCTTG)	2.82
CAGTCACCATGGACCGGTTTTCCCGGTAATCCGTATTTGTA (site CAGTCACCTTA)	0.0069
